In US4689345A, “Oxygenated alkyl substituted bicyclo alkanes” (CBD Corporation, priority 1986, dated 1987):
Like-named read-outs stand apart in the source and are kept apart here.

What was measured:
[1] = test system: estrogen receptor; assay: Estrogen receptor inhibition, Actinomyces; assay type: binding
[2] = test system: progesterone receptor; assay: Progesterone receptor inhibition, Fulsarium gravarium; assay type: binding
Source text: (§1) In the second series of experiments using the compound of the invention 2-(5-hydroxyhept-1-yl) bicyclo[3.3.0]octan-7-one {hexahydro-4-(5-hydroxyheptyl)-2-(1H)-pentalenone} upon zeralenone and zearalanol production, zearalenone and zearalanol were chemically obtained from Sigma Chemical Co., St. Louis, Mo.

[3] = test system: estrogen receptor; assay: Estrogen receptor inhibition, Fulsarium gravarium; assay type: binding
Source text: as §1

[4] = test system: progesterone receptor; assay: Progesterone receptor inhibition, Sporotrichum; assay type: binding
[5] = test system: estrogen receptor; assay: Estrogen receptor inhibition, Blastomyces; assay type: binding
[6] = test system: progesterone receptor; assay type: binding; settings: Histoplasma
[7] = test system: keloid; assay: Suppression of keloid formation; set-up: species or system human
[8] = molecular target: T1, androgen receptor (Homo sapiens, UniProt P10275); assay: Androgen receptor blocking in breast capsule (hard band) tissue; assay type: binding; set-up: from tissue; host or cells: breast capsule (hard fibrous band) tissue; concentration or dose not given beside the values
T1 sequence (P10275 1-920): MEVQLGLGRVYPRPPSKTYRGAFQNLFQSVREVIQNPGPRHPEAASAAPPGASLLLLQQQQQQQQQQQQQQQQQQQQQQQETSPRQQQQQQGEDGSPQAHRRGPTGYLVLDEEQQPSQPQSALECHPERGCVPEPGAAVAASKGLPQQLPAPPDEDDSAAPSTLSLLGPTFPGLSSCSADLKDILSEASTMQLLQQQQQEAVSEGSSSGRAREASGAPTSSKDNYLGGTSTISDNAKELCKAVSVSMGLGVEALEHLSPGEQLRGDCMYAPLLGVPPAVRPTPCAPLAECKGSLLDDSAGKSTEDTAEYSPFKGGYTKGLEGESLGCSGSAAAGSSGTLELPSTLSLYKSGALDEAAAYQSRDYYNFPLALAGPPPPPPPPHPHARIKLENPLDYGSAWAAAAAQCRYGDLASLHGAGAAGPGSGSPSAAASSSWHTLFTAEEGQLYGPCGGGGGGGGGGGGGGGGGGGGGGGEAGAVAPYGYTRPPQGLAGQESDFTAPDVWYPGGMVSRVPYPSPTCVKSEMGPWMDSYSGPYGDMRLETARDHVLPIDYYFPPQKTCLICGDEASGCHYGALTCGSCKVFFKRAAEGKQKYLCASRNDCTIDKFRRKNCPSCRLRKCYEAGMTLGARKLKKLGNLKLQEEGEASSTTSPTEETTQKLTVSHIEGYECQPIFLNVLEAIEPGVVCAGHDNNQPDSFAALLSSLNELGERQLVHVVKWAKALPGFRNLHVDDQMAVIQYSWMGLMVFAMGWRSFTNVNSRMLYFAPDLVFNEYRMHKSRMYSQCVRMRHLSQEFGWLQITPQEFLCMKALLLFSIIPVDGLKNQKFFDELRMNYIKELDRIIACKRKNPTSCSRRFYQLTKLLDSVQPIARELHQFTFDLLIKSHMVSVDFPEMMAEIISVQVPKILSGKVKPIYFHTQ
Source text: In addition to interabdominal adhesions following surgery, the other most common post-surgical fibrous complication is that of a hard fibrous band developing around breast implants following breast augmentation surgery. It has been postulated that these bands may be caused by keloid formation under the skin. Such tissues were studied to evaluate the effect of the anti-androgens of this invention on other keloid tissue.

Structure (SMILES): CCC(O)CCCCC1CCC2CC(=O)CC12 (centres unmarked) [Compound IV]
- % Estrogen Receptor Inhibition [1]: 0%
- % Progesterone Receptor Inhibition ([2]; DHT:anti-androgen 1:1): 1%
- % Progesterone Receptor Inhibition ([2]; DHT:anti-androgen 1:10): 3%
- % Progesterone Receptor Inhibition ([2]; DHT:anti-androgen 1:100): 6%
- % Progesterone Receptor Inhibition ([2]; DHT:anti-androgen 1:1,000): 4%
- % Estrogen Receptor Inhibition ([3]; DHT:anti-androgen 1:1): 0%
- % Estrogen Receptor Inhibition ([3]; DHT:anti-androgen 1:10): 0%
- % Estrogen Receptor Inhibition ([3]; DHT:anti-androgen 1:100): 0%
- % Estrogen Receptor Inhibition ([3]; DHT:anti-androgen 1:1,000): 0%
- % Progesterone Receptor Inhibition [4]: 7%
- % Estrogen Receptor Inhibition [5]: 0%
- % Progesterone Receptor Inhibition [6]: 0%

Structure (SMILES): CCC(CCCCC1CCC2CC(=O)CC12)OC (centres unmarked) [Compound V, 2-(5-Methoxyhept-1-yl)bicyclo[3.3.0]octan-7-one]
- keloid formation [7]: suppression of keloid formation
- Mean % Androgen Inhibition ([8]; breast capsule group 1): 17%
- Mean % Androgen Inhibition ([8]; breast capsule group 2): 49%
- Mean % Androgen Inhibition ([8]; breast capsule group 3): 70%
- Mean % Androgen Inhibition ([8]; breast capsule group 4): 74%
